Measured values reported in patent US20230041138A1, “TREATMENT OF HIS HYPORESPONDERS” (NewAmsterdam Pharma B.V. (Dutch Registration No. 55971946), priority 2021, published 2023).
Values joined by “and” are separate entries in the source; they are usually repeats but may differ in a detail not shown here. Identical values can stand only once. Like-named read-outs stand apart in the source and are kept apart here.

Columns and labels:
LDL-C = conditions: cited from earlier work
[1] = system: Lipoprotein, lipid and apolipoprotein concentrations; assay: Phase 2 placebo-controlled study of obicetrapib as adjunct to high-intensity statin therapy: lipid efficacy; type: in vivo, human; conditions: for Apo A1, week 8 change, LS Mean ± SE / Apo B, week 8 change, LS Mean ± SE / HDL-C, week 8 change, LS Mean ± SE / LDL-C (Martin-Hopkins), week 8 change, LS Mean ± SE / Lp(a), week 8 change, LS Mean ± SE / Non-HDL-C, week 8 change, LS Mean ± SE / TG, week 8 change, LS Mean ± SE / VLDL-C, week 8 change, LS Mean ± SE / LDL-C by Friedewald, % change from baseline, LS mean: MMRM; for LDL-C (PUC), week 8 change, LS Mean ± SE (Table 9): analysis of covariance model; for LDL-C (Friedewald formula) reduced from baseline by: primary analysis; for LDL-C (Friedewald formula) reduced from baseline by / Apo B reduced by / Lp(a) reduced by / non-HDL-C reduced by: stated as reduction; for ApoB, % change from baseline, median / HDL-C, % change from baseline, median / LDL-C by Friedewald, % change from baseline (median) / LDL-C by PUC, % change from baseline (median) / Non-HDL-C, % change (median) from baseline / LDL-C by Friedewald, % change from baseline, LS mean: week 8, on top of high-intensity statin
Method: The study consisted of three arms: 1) 5 mg obicetrapib as adjunctive therapy; 2) 10 mg obicetrapib as adjunctive therapy and 3) a placebo arm. The second objective was to evaluate other lipoprotein lipid and apolipoprotein responses, safety and tolerability profiles, and plasma concentrations of obicetrapib during treatment and for several weeks of follow-up. Lastly, this study aimed to determine if different quantitative measures of LDL-C levels produced differences in the treatment effects of CETP inhibition.
This randomised, double-blind, placebo-controlled, parallel-group phase 2 trial was conducted in male and female patients (18-75 years), treated with high-intensity statin therapy, with LDL-C levels >70 mg/DL and TG levels <400 mg/dL. Key exclusion criteria were patients with BMI >40 kg/m; Significant cardiovascular disease; HbAc >10%; Uncontrolled hypertension; Active muscle disease; GFR <60 ml/min; Hepatic dysfunction; Anemia; History of malignancy; Alcohol abuse; Treatment with investigational product; Treatment with PCSK9 inhibitor; Clinically significant condition; and/or prior exposure to a CETP inhibitor. Patients were recruited at 19 sites in the United States. The trial was approved by Independent Ethics Committees, and each patient provided written informed consent. The trial was conducted in accordance with the principles of the Declaration of Helsinki and Good Clinical Practice Guidelines and the protocol was registered on ClinicalTrials.gov (NCT04753606).
The screening period for this study took up to 2-weeks. Afterwards patients were randomized to placebo, 5 mg obicetrapib or 10 mg obicetrapib for an 8-week treatment period. After the treatment period, patients continued for a 4-week safety follow-up and a 15-week PK follow-up.
Patients were randomly assigned to receive one of the three treatments investigative treatments. All treatments were to be taken once daily with food for 8 weeks. Safety was assessed throughout the trial by monitoring adverse events and concomitant medication use, 12-lead electrocardiograms (ECGs), vital signs, laboratory safety assessments and physical examinations. Additional assessments included salivary cortisol, plasma aldosterone, high-sensitivity C-reactive protein (hsCRP) and endothelin 1.
Efficacy assessments included fasted lipid profiles including total cholesterol (TC), HDL-C, LDL-C, triglycerides, apolipoprotein B (ApoB), and derived parameters.
Total cholesterol and triglycerides were measured by homogenous enzymatic assay using a Modular analyser (cholesterol oxidase peroxidase-peroxidase aminophenazone phenol [CHOP-PAP]) method and a glycerol phosphate oxidase [GPO-PAP] method, respectively. Apolipoprotein B was measured by immunoturbidimetry using reagents from Rolf Greiner Biochemica (Germany) and N apoprotein standard serum from Siemens (Germany). LDL particle size was determined by gradient gel electrophoresis. HDL fraction was separated by a combined ultracentrifugation-precipitation method (β-quantification). HDL-2 and HDL-3 fractions were then separated by further ultracentrifugation. Total-cholesterol in HDL, HDL 2 and HLD-3 fractions, free cholesterol in HDL fraction, triglycerides in HDL fraction and phospholipids in plasma and HDL-fraction were measured using enzymatic methods and reagents from Diasys Diagnostics (Germany). The measurements were performed on an Olympus AU600 automatic analyzer and were calibrated using secondary standards from Roche Diagnostics (total-cholesterol, triglycerides) and Diasys Diagnostics (free cholesterol, phospholipids), respectively. Esterified cholesterol was calculated as the difference between total-cholesterol and free cholesterol.
The primary outcome measure was LDL-C (percent change). Secondary outcome measures included ApoB, Non-HDL-C and HDL-C (percent change). The Intent-to-Treat (ITT) Population included all participants randomized into the study. […]

[2] = 5 mg once daily for 8 weeks on top of high-intensity statin
[3] = 5 mg once daily on top of high-intensity statin
[4] = 5 mg once daily on top of high-intensity statin, listed as obicetrapib
[5] = 5 mg once daily, 8 weeks, on top of high-intensity statin
[6] = 10 mg once daily for 8 weeks on top of high-intensity statin
[7] = 10 mg once daily on top of high-intensity statin
[8] = 10 mg once daily, 8 weeks, on top of high-intensity statin

SMILES: CCOC(=O)N1c2ccc(C(F)(F)F)cc2[C@@H](N(Cc2cc(C(F)(F)F)cc(C(F)(F)F)c2)c2ncc(OCCCC(=O)O)cn2)C[C@H]1CC [Obicetrapib, (2R,4S)-4-{[3,5-bis(trifluoromethyl)benzyl]-[5-(3-carboxypropoxy)pyrimidin-2-yl]amino}-2-ethyl-6-trifluoromethyl-3,4-dihydro-2H-quinoline-1-carboxylic acid ethyl ester]
- LDL-C reduction (LDL-C; 1 mg for 12 weeks, mild dyslipidemia): 27%
- LDL-C reduction (LDL-C; 2.5 mg for 12 weeks, mild dyslipidemia): 33%
- LDL-C reduction (LDL-C; 5 mg for 12 weeks, mild dyslipidemia): 45%
- LDL-C reduction (LDL-C; 10 mg for 12 weeks, mild dyslipidemia): 45%
- LDL-C reduction (LDL-C; 10 mg obicetrapib plus 10 mg rosuvastatin): 63%
- LDL-C reduction (LDL-C; 10 mg obicetrapib plus 20 mg atorvastatin): 68%
- incremental LDL-C reduction compared with statin monotherapy (LDL-C; daily 10 mg with moderate-intensity statins (20 mg atorvastatin or 10 mg rosuvastatin), 12 weeks): up to 50%
- Time of treatment at which maximum LDL-C reductions were already present ([1]; 5 mg and 10 mg add-on to high-intensity statin): ≤ 4 weeks
- ApoB, EoT median [1, 2]: 65.0 mg/dL
- ApoB, change from baseline, median [1, 2]: -22.0 mg/dL
- HDL-C, EoT median [1, 2]: 107.0 mg/dL
- HDL-C, change from baseline, median [1, 2]: 60.0 mg/dL
- LDL-C by Friedewald, EoT median [1, 2]: 51.0 mg/dL
- LDL-C by PUC, EoT median [1, 2]: 53.0 mg/dL
- Non-HDL-C, EoT median [1, 2]: 71 mg/dL
- Apo A1, week 8 change, median (min, max) [1, 3]: 44.6% and 44.6 (−10.0, 87.1) %
- LDL-C (Martin-Hopkins), week 8 change, median (min, max) [1, 3]: −42.5 (−80.8, 74.4) %
- Lp(a), week 8 change, median (min, max) [1, 3]: −33.8 (−84.6, 93.8) %
- TG, week 8 change, median (min, max) [1, 3]: −11.0 (−53.3, 86.7) %
- VLDL-C, week 8 change, median (min, max) [1, 3]: −11.5 (−53.5, 83.3) %
- Apo A1, week 8 change, LS Mean ± SE [1, 3]: 41.1 ± 3.04%
- Apo B, week 8 change, LS Mean ± SE [1, 3]: −22.4 ± 2.58%
- HDL-C, week 8 change, LS Mean ± SE [1, 3]: 122 ± 6.59%
- LDL-C (Martin-Hopkins), week 8 change, LS Mean ± SE [1, 3]: −39.6 ± 3.68%
- Lp(a), week 8 change, LS Mean ± SE [1, 3]: −30.9 ± 4.43%
- Non-HDL-C, week 8 change, LS Mean ± SE [1, 3]: −34.4 ± 3.18%
- TG, week 8 change, LS Mean ± SE [1, 3]: −6.63 ± 5.32%
- VLDL-C, week 8 change, LS Mean ± SE [1, 3]: −6.02 ± 5.24%
- LDL-C (PUC), week 8 change, LS Mean ± SE (Table 9) [1, 3]: −35.7 ± 3.31%
- LDL-C (Martin-Hopkins), week 8 change, median (min, max) [1, 4]: 42.5%
- TG, week 8 change, median (min, max) [1, 4]: −11.0%
- VLDL-C, week 8 change, median (min, max) [1, 4]: −11.5%
- LDL-C by PUC, % change from baseline, LS mean (Table 3) [1, 5]: −37.98%
- LDL-C (Friedewald formula) reduced from baseline by [1, 5]: 42.9%
- Apo B reduced by [1, 5]: 24.4%
- Lp(a) reduced by [1, 5]: 33.8%
- non-HDL-C reduced by [1, 5]: 38.9%
- ApoB, % change from baseline, median ([1]; 5 mg once daily): −24.40% and −24.4 (−58.5, 47.4) %
- HDL-C, % change from baseline, median ([1]; 5 mg once daily): 135% and 135.4% and 135 (−26.4, 213) %
- LDL-C by Friedewald, % change from baseline (median) ([1]; 5 mg once daily): −42.90% and −42.9 (−81.9, 72.4) %
- LDL-C by PUC, % change from baseline (median) ([1]; 5 mg once daily): −41.5% and −41.45% and −41.5 (−71.2, 62.3) %
- Non-HDL-C, % change (median) from baseline ([1]; 5 mg once daily): −38.9% and −38.9 (−65.6, 66.3) %
- LDL-C by Friedewald, % change from baseline, LS mean ([1]; 5 mg once daily): −37.94% and −38.0 ± 3.49%
- LDL-C by PUC, % change from baseline (median) ([1]; 5 mg once daily, listed as obicetrapib): −41.5%
- ApoB, EoT median [1, 6]: 58.5 mg/dL
- ApoB, change from baseline, median [1, 6]: -24.5 mg/dL
- HDL-C, EoT median [1, 6]: 117.5 mg/dL
- HDL-C, change from baseline, median [1, 6]: 72.0 mg/dL
- LDL-C by Friedewald, EoT median [1, 6]: 52.0 mg/dL
- LDL-C by PUC, EoT median [1, 6]: 49.5 mg/dL
- Non-HDL-C, EoT median [1, 6]: 69 mg/dL
- Apo A1, week 8 change, median (min, max) [1, 7]: 47.8% and 47.8 (13.5, 106) %
- LDL-C (Martin-Hopkins), week 8 change, median (min, max) [1, 7]: −49.2 (−77.0, 28.1) %
- Lp(a), week 8 change, median (min, max) [1, 7]: −56.5 (−85.7, 18.3) %
- TG, week 8 change, median (min, max) [1, 7]: −7.85 (−63.7, 129) %
- VLDL-C, week 8 change, median (min, max) [1, 7]: −7.90 (−44.4, 125) %
- Apo A1, week 8 change, LS Mean ± SE [1, 7]: 52.3 ± 3.04%
- Apo B, week 8 change, LS Mean ± SE [1, 7]: −28.1 ± 2.56%
- HDL-C, week 8 change, LS Mean ± SE [1, 7]: 157 ± 6.54%
- LDL-C (Martin-Hopkins), week 8 change, LS Mean ± SE [1, 7]: −46.9 ± 3.65%
- Lp(a), week 8 change, LS Mean ± SE [1, 7]: −42.0 ± 4.33%
- Non-HDL-C, week 8 change, LS Mean ± SE [1, 7]: −39.9 ± 3.15%
- TG, week 8 change, LS Mean ± SE [1, 7]: 2.45 ± 5.27%
- VLDL-C, week 8 change, LS Mean ± SE [1, 7]: 3.08 ± 5.19%
- LDL-C (PUC), week 8 change, LS Mean ± SE (Table 9) [1, 7]: −46.8 ± 3.23%
- LDL-C (Martin-Hopkins), week 8 change, median (min, max) ([1]; 10 mg once daily on top of high-intensity statin, listed as obicetrapib): −49.2%
- LDL-C by PUC, % change from baseline, LS mean (Table 3) [1, 8]: −44.15%
- TG and VLDL-C, comparison with placebo [1, 8]: not significantly different
- LDL-C (Friedewald formula) reduced from baseline by [1, 8]: 45.7%
- Apo B reduced by [1, 8]: 29.8%
- Lp(a) reduced by [1, 8]: 56.5%
- non-HDL-C reduced by [1, 8]: 44.4%
- ApoB, % change from baseline, median ([1]; 10 mg once daily): −29.75% and −29.8 (−58.4, 13.0) %
- HDL-C, % change from baseline, median ([1]; 10 mg once daily): 165% and 165 (55.1,286) %
- LDL-C by Friedewald, % change from baseline (median) ([1]; 10 mg once daily): −45.65% and −45.7 (−78.0, 26.2) %
- LDL-C by PUC, % change from baseline (median) ([1]; 10 mg once daily): −50.8% and −50.75% and −50.8 (−76.9, 15.6) %
- Non-HDL-C, % change (median) from baseline ([1]; 10 mg once daily): −44.4% and −44.4 (.70.2, 22.5) %
- LDL-C by Friedewald, % change from baseline, LS mean ([1]; 10 mg once daily): −44.15% and −44.2 ± 3.46%
- LDL-C by PUC, % change from baseline (median) ([1]; 10 mg once daily, listed as obicetrapib): −50.8%
- median Apo B reduction from baseline, post-hoc analysis ([1]; 10 mg, individuals with baseline Apo B >100 mg/dL): 39%
